In test [1] the test system is cyclins D1, D2, D3 and E, cdks 2 and 4. Kind of test: Western blot of G1-phase cyclins and cdks in 5 L cells. It is filed as cell-based, rat. Particulars: 24-hour treatment, FIG. 2A. How it is done: (§1) After it had been found by introductory experiments that the effect of dioxin on the cell cycle required gene expression which was continuous and induced, experiments were carried out to investigate the Ah receptor-dependent, cell cycle-regulating genes by characterizing biochemical changes in the course of the cell cycle (Lees, E., Curr. Opin. Cell Biol. 7, 773 (1995); Morgan, D. O., Nature 374, 131 (1995). The levels of cyclins D and E, which are involved in the G1-S transition in the cell cycle, as well as their associated cyclin-dependent kinases (cdks 2 and 4), were not reduced by dioxin treatment (see FIG. 2A). […]
(§2) Biochemical properties of G1-phase cyclin/cdk complexes were analysed using 30-60%-confluent, asynchronous cell cultures which, apart from those in section E, had been subjected to a 24-hour treatment with TCDD or 0.1% of the DMSO solvent. The quantities of G1-phase cyclins D1, D2, D3 and E, and also cdks 2 and 4(A) were determined by Western blot in extracts which had been prepared by lysis using a mild detergent (Matsushime, H. et al. Mol. Cell Biol. 14, 2066 (1994)). Cyclin E-dependent histone H1 kinase activity (B) was measured in an immune complex kinase assay (Matsushime, loc. cit.) following precipitation with an anti-cyclin E antibody (lanes 1 and 2) or a corresponding anti-AP-2 antibody as the negative control (lanes 3 and 4). […]

Test [2] deals with p27Kip1. The experiment in a line: p27Kip1 protein by Western blot in foetal thymus organ culture thymocytes. The conditions noted are these: 2 days of FTOC, 1 nM, compared with solvent cultures. It is filed as cell-based, mice. The source says:
An important target for dioxin toxicity is the thymus, which suffers an AhR-dependent atrophy (Poland, A. et al., Annu. Rev. Pharmacol. Toxicol. 22, 517 (1982); Fernandez-Salguero, P. et al., Science 268, 722 (1995)). Foetal thymus organ culture (FTOC) provides a useful model for studying dioxin activities (Lai, Z. W. et al., Mol. Pharmacol. 52, 30 (1997), and the literature references which are cited therein). After only 2 days of FTOC, a 3-fold induction of Kip1 protein was found in thymocytes which had been prepared from TCDD-treated cultures as compared with cultures which had only been exposed to the solvent (FIG. 4A). This was accompanied by a decrease in the proliferation of the thymocytes, as shown by a reduced incorporation of ^3H-thymidine into the thymocyte DNA (75±7%) and a drop, from 32±3% down to 24±1%, in the number of cells in the S and G2 phases of the cell cycle (a representative example from 3 similar experiments is shown in FIG. 4B). […]
Foetal thymus glands from C57B16 mice were explanted after 14.5 days of pregnancy and cultured for 2 days in the presence of 1 nM TCDD or 0.1% DMSO solvent prior to preparing thymocytes. p27Kip1 protein (A) was determined by Western blot in 10^5 thymocytes. […] The cell cycle distribution of the total lymphocyte population (B) was determined by means of flow cytometry following DNA staining with H33258 bisbenzimide dye.
In general terms: Immunoblotting shows a protein as a band on a membrane.

Another test relates to thymocytes. The experiment in a line: Thymocyte proliferation and cell cycle distribution in foetal thymus organ culture. The test is classed as cell-based, mice. Particulars: for % in G2/S: 2 days of culture, mean ± S.D., 3 experiments. The source says: An important target for dioxin toxicity is the thymus, which suffers an AhR-dependent atrophy (Poland, A. et al., Annu. Rev. Pharmacol. Toxicol. 22, 517 (1982); Fernandez-Salguero, P. et al., Science 268, 722 (1995)). Foetal thymus organ culture (FTOC) provides a useful model for studying dioxin activities (Lai, Z. W. et al., Mol. Pharmacol. 52, 30 (1997), and the literature references which are cited therein). After only 2 days of FTOC, a 3-fold induction of Kip1 protein was found in thymocytes which had been prepared from TCDD-treated cultures as compared with cultures which had only been exposed to the solvent (FIG. 4A). This was accompanied by a decrease in the proliferation of the thymocytes, as shown by a reduced incorporation of ^3H-thymidine into the thymocyte DNA (75±7%) and a drop, from 32±3% down to 24±1%, in the number of cells in the S and G2 phases of the cell cycle (a representative example from 3 similar experiments is shown in FIG. 4B). While the proliferation rate in all the early thymocyte subpopulations was reduced independently of the status of CD4 or CD8 expression (Table 1), the effect was more strongly pronounced in the predominantly immature, double negative subpopulation and in a small CD4low/+/CD8-subpopulation.
Foetal thymus glands from C57B16 mice were explanted after 14.5 days of pregnancy and cultured for 2 days in the presence of 1 nM TCDD or 0.1% DMSO solvent prior to preparing thymocytes. p27Kip1 protein (A) was determined by Western blot in 10^5 thymocytes. Uniform loading of the gel was ensured by probing the blots once again with an Erk1 antibody (one of three representative examples is shown). The cell cycle distribution of the total lymphocyte population (B) was determined by means of flow cytometry following DNA staining with H33258 bisbenzimide dye.
Thymocytes from foetal thymus glands were collected after 2 days of culture in the presence or absence of TCDD and analysed for their cell cycle distribution. The values are mean values±S.D. from 3 independent experiments.

Test [3] has as its system 5 L cells. Particulars: non-electroporated cells (Weiss, loc. cit.); cited from earlier work.
For test [4], the system named is 5 L cells. The experiment in a line: Cell cycle progress by Rb protein phosphorylation, Western blot, synchronised 5 L cells. It is filed as cell-based, rat. Particulars: 1 nM, 2 h before analysis, 8 h after serum stimulation, FIG. 1. How it is done: 5 L cells were frozen in their growth by being fasted in serum-free medium for 24 h and synchronously released from the block in the cell cycle by the addition of serum. The progress in the cell cycle was monitored by Western blot analysis, by determining the accumulation of phosphorylated Rb protein (upper arrow) in relation to hypophosphorylated Rb protein (lower arrow) 8 h after stimulating with the serum. 2 h before the analysis, the cells were treated with 1 nM TCDD, the transcription inhibitor actinomycin D (5 μg/ml) or both these compounds. The culture conditions have been described previously (Weiss, C. et al. Exp. Cell Res. 226, 154 (1996)), and extracts were prepared by lysing the cells in denaturing SDS sample buffer.

Test [5] concerns cyclin E-associated histone H1 kinase. Kind of test: Cyclin E-dependent histone H1 kinase activity, immune complex kinase assay. It is filed as cell-based, rat. Particulars: 5 L cells, 24-hour treatment, FIG. 2B. How it is done: as §1, §2
Test [6] has as its system p27Kip1 associated with cyclin E. Kind of test: Immunocoprecipitation with anti-cyclin E antibody, Western blot of p27Kip1. The test is classed as cell-based, rat. The conditions noted are these: 5 L cells, immunocoprecipitation analysis, FIG. 2D. How it is done: as §1, §2
Test [7] concerns p27Kip1. The experiment in a line: p27Kip1 protein level by Western blot in 5 L cells and BP8 derivatives. It is filed as cell-based, rat. How it is done:
After it had been found by introductory experiments that the effect of dioxin on the cell cycle required gene expression which was continuous and induced, experiments were carried out to investigate the Ah receptor-dependent, cell cycle-regulating genes by characterizing biochemical changes in the course of the cell cycle (Lees, E., Curr. Opin. Cell Biol. 7, 773 (1995); Morgan, D. O., Nature 374, 131 (1995). The levels of cyclins D and E, which are involved in the G1-S transition in the cell cycle, as well as their associated cyclin-dependent kinases (cdks 2 and 4), were not reduced by dioxin treatment (see FIG. 2A). The levels of cyclins D2 and D3 were even raised, presumably because the cells are frozen in a state which is per se associated with a high level of these cyclins. […] The expected accumulation of a slowly migrating form of cdk2, which is presumably not phosphorylated at Thr-160 (Polyak, loc. cit.), was found in the same precipitates (FIG. 2D). […]
as §2, with “4). The levels of p27Kip1 protein (C) were determined by Western blot in whole-cell extracts prepared from TCDD-treated cultures of AhR-expressing 5 L wild-type cells, their AhR-deficient BP8AhR-derivatives and BP8 cells which were expressing AhR ectopically (BP8AhR+) (Weiss, loc. cit.).” for “4).”

The test system of the next test is Kip1 mRNA. The experiment in a line: Kip1 mRNA by Northern blot in 5 L cells. The test is classed as cell-based, rat.
The test system of test [8] is 5 L cells. The experiment in a line: Cell cycle distribution by flow cytometry in transfected 5 L cells. The test is classed as cell-based, rat. An excerpt:
Genetic indications of a causal role for Kip1 induction in dioxin-induced cell cycle retardation were obtained by transiently expressing a Kip1 antisense RNA in order to inactivate Kip1. Coexpression of green fluorescent protein (GFP, Heim, A. B. et al., Nature 373, 663 (1997)) enabled flow cytometry to be used to detect efficiently transfected cells (FIG. 3A). […] When Kip1 antisense RNA was expressed together with GFP, the TCDD effect on cell cycle distribution was interrupted in the efficiently transfected subpopulation of cells (FIG. 3B, third row). In the non-transfected subpopulation from the same cell culture, TCDD retarded the progress of the cell cycle in the expected manner (FIG. 3B, last row). In this context, it is to be noted that the electroporation reduced sensitivity to dioxin such that the observed effects on the cell cycle were less pronounced than in non-transfected cells, for example 1.5-2-fold as compared with 3-4-fold in non-electroporated cells (Weiss, loc. cit.).
5 L cells were transiently cotransfected with expression vectors for a Kip1 antisence RNA and GFP (part B, lower panel) or with the empty expression vector and GFP (part B, upper panel). 32 h after the transfection, the cells were treated with 1 nM TCDD or 0.1% DMSO solvent, as the control, and harvested, for the analysis by flow cytometry 18 h later, using trypsin. (A) The GFP-expressing subpopulation of transfected cells (thick line) was identified by means of a high green fluorescence (GFP) as compared with untransfected cells (thin line). (B) Cell cycle profiles were determined by staining with H33258 and analysed individually for efficiently transfected (approx. 5%), green-fluorescing subpopulations (rows 1 and 3) and untransfected subpopulations (rows 2 and 4) in the presence of 1 nM TCDD (right-hand panels) or 0.1% DMSO solvent (left-hand panels).
For orientation: A flow cytometer gives signals particle by particle.

For the next test, the system named is p18-Ink and p21-Cip1. The experiment in a line: Levels of other cdk inhibitors in 5 L cells. The test is classed as cell-based, rat. How it is done: After it had been found by introductory experiments that the effect of dioxin on the cell cycle required gene expression which was continuous and induced, experiments were carried out to investigate the Ah receptor-dependent, cell cycle-regulating genes by characterizing biochemical changes in the course of the cell cycle (Lees, E., Curr. Opin. Cell Biol. 7, 773 (1995); Morgan, D. O., Nature 374, 131 (1995). The levels of cyclins D and E, which are involved in the G1-S transition in the cell cycle, as well as their associated cyclin-dependent kinases (cdks 2 and 4), were not reduced by dioxin treatment (see FIG. 2A). The levels of cyclins D2 and D3 were even raised, presumably because the cells are frozen in a state which is per se associated with a high level of these cyclins. […] The expected accumulation of a slowly migrating form of cdk2, which is presumably not phosphorylated at Thr-160 (Polyak, loc. cit.), was found in the same precipitates (FIG. 2D). […] The rise in the level of the p27Kip1 protein was accompanied by a fourfold induction of Kip1 mRNA (FIG. 2E, lanes 1 and 2).

Like-named read-outs stand apart in the source and are kept apart here.

For `Clc1cc2c(cc1Cl)Oc1cc(Cl)c(Cl)cc1O2` [TCDD], in test [1], the “levels of cyclins D2 and D3” value is on record as “even raised”. Moreover, the “levels of cyclins D and E and associated cyclin-dependent kinases (cdks 2 and 4)” value in test [1] was “not reduced”. Also, in the test on p27Kip1 [2], the “induction of Kip1 protein in thymocytes” value was determined as 3 fold. In the test on thymocytes (2 days of FTOC, 1 nM), the “incorporation of 3H-thymidine into the thymocyte DNA” value turned out to be 75±7%. Also, the “% in G2/S” value in the test on thymocytes (CD4+/CD8+ thymocytes) was found to be 35 ± 10%; in the test with thymocytes (CD4+/CD8− thymocytes), 24 ± 4%; in the test with thymocytes (CD4−/CD8+ thymocytes), 32 ± 6%; in the test with thymocytes (CD4−/CD8− thymocytes), 18 ± 2%. Besides, in the test on thymocytes (total thymocyte population, 2 days of FTOC, 1 nM), the “number of cells in the S and G2 phases of the cell cycle” value was determined as 24±1%. The results for the “observed effects on the cell cycle” value in the test on 5 L cells [3] and with 5 L cells [8] (electroporated cells) were 3-4 fold and 1.5-2 fold, respectively. Moreover, in the test with 5 L cells [4], the “progress of the cell cycle (phosphorylated versus hypophosphorylated Rb protein)” value is on record as “transcription-dependent retardation”. In addition, the “cyclin E-associated histone H1 kinase activity” value in test [5] was “substantially reduced”. Further, the “quantities of p27Kip1 associated with cyclin E” value in test [6] is reported as “increased quantities”. Besides, the “level of p27Kip1 by Western blot” value in the test on p27Kip1 [7] (5 L wild-type cells, exposure from 4 to 72 hours, FIG. 2C) was “raised in every case”. Also, the “upregulation of p27Kip1” value in the test with p27Kip1 [7] (AhR-poor subclone of 5 L cells (BP8-AhR−)) is “not possible to observe dioxin-dependent upregulation”. In addition, in the test with p27Kip1 [7] (BP8 subclone with ectopic expression of the AhR (BP8-AhR+)), the “induction of p27Kip1” value is “induction was restored”. Also, the “induction of Kip1 mRNA” value in the test on Kip1 mRNA (5 L cells, 4-hour exposure, FIG. 2E) was “fourfold”. The “breakdown of Kip1 mRNA” value in the test on Kip1 mRNA (following interruption of transcription by actinomycin D) is reported as “did not affect”. Moreover, the “relative number of cells in S/G2” value in the test with 5 L cells [8] (GFP with empty expression vector, transfected and non-transfected cells, 1 nM, 18 h) is “reduced”. Also, the “TCDD effect on cell cycle distribution” value with 5 L cells [8] (efficiently transfected subpopulation expressing Kip1 antisense RNA with GFP, 1 nM) is listed as “interrupted”. For the same molecule, the “progress of the cell cycle” value in the test with 5 L cells [8] (non-transfected subpopulation of the Kip1 antisense culture, 1 nM) is listed as “retarded”. Also, in the test on p18-Ink and p21-Cip1, the “p18-Ink and p21-Cip1 levels” value was “not noticeably altered”.

On to `C[C@@H]1C[C@@H]([C@H](O)CC2CC(=O)NC(=O)C2)C(=O)[C@@H](C)C1` [cycloheximide], for which the “effect on TCDD induction of Kip1 mRNA” value in the test with Kip1 mRNA (30-minute pretreatment, 20 μg/ml, then 4-hour TCDD) is recorded as “had no effect”.

The values are drawn from patent US6482610B1, “Method for producing agents for treating tumor diseases and for immunosuppression” (Forschungszentrum Karlsruhe GmbH, priority 1998, dated 2002).
